According to DBAASP:
In brackets after ≈: the same amount, converted by molar mass. One block for each compound: values may come before it.

What was measured:
Test in all cases: ≥ marks a high value that may be exact or a test limit, other limits are often not marked, values filed in µg/mL are converted to µM
[1] = system: Cronobacter muytjensii ATCC 51329
[2] = system: Staphylococcus aureus RN4220
[3] = system: Pseudomonas fluorescens NCIMB 9046
[4] = system: Cronobacter sakazakii DSM 4485
[5] = system: Escherichia coli NCIMB 11843
[6] = system: Klebsiella pneumoniae NCIMB 13218
[7] = system: Staphylococcus aureus SA113
[8] = system: Cronobacter sakazakii DPC 6440
[9] = system: Staphylococcus aureus RF122
[10] = system: Salmonella enterica subsp. enterica serovar Typhimurium LT2
[11] = system: Staphylococcus aureus Newman
[12] = system: Cronobacter sakazakii ATCC BAA-894
[13] = system: Staphylococcus aureus NCTC 8325-4
Escherichia coli BL21 = system: Escherichia coli BL21
[14] = system: Staphylococcus epidermidis
Escherichia coli MG1655 = system: Escherichia coli MG1655
[15] = system: Escherichia coli ATCC 25922
[16] = system: Staphylococcus aureus ATCC 25923
Escherichia coli ML-35p = system: Escherichia coli ML-35p
[17] = system: Pseudomonas aeruginosa ATCC 27853
[18] = system: Staphylococcus aureus ATCC BAA-44
[19] = system: Enterococcus faecalis ATCC 29212
[20] = system: Salmonella enterica subsp. enterica serovar Enteritidis
Listeria innocua = system: Listeria innocua
Micrococcus luteus A270 = system: Micrococcus luteus A270
Escherichia coli = system: Escherichia coli
[21] = system: Staphylococcus aureus NCTC 10788
[22] = system: Escherichia coli NCTC 10418
[23] = system: Candida albicans NCPF 1467
[24] = system: Pseudomonas aeruginosa ATCC 9027
[25] = system: Staphylococcus aureus ATCC 2592
[26] = system: Candida albicans ATCC 2002
[27] = system: Staphylococcus aureus ATCC 12493

Structure (SMILES): CC(C)C[C@H](NC(=O)[C@H](CC(N)=O)NC(=O)[C@H](CCC(=O)O)NC(=O)[C@H](CC(N)=O)NC(=O)[C@H](CC(C)C)NC(=O)[C@@H](N)C(C)C)C(=O)N[C@@H](C)C(=O)N[C@@H](CCCN=C(N)N)C(=O)O [VLNENLAR]
MIC [1]: ≥ 2500 µM | MIC [2]: ≥ 1250 µM | MIC [3]: ≥ 1250 µM | MIC [4]: ≥ 2500 µM | MIC [5]: ≥ 1250 µM | MIC [6]: ≥ 1250 µM | MIC [7]: ≥ 625 µM | MIC [8]: ≥ 625 µM | MIC [9]: ≥ 1250 µM | MIC [10]: ≥ 2500 µM | MIC [11]: ≥ 1250 µM | MIC [12]: ≥ 2500 µM | MIC [13]: ≥ 625 µM

Structure (SMILES): CC[C@H](C)[C@H](NC(=O)[C@H](CCCCN)NC(=O)[C@H](CCCN=C(N)N)NC(=O)[C@H](CCCCN)NC(=O)[C@H](CCCCN)NC(=O)[C@H](CCCCN)NC(=O)[C@H](Cc1c[nH]c2ccccc12)NC(=O)[C@H](CCCCN)NC(=O)[C@H](CC(C)C)NC(=O)[C@H](CO)NC(=O)[C@H](Cc1ccccc1)NC(=O)[C@H](CCCN=C(N)N)NC(=O)[C@H](CC(=O)O)NC(=O)[C@H](CCSC)NC(C)=O)C(=O)N[C@@H](CCCN=C(N)N)C(=O)N[C@@H](CCCN=C(N)N)C(=O)N[C@@H](CCCN=C(N)N)C(=O)N[C@@H](CCCN=C(N)N)C(=O)N[C@@H](CCCN=C(N)N)C(=O)N[C@@H](CCCN=C(N)N)C(=O)N[C@@H](CCCN=C(N)N)C(=O)N[C@@H](CCCN=C(N)N)C(=O)N[C@@H](CCCN=C(N)N)C(=O)N[C@@H](CCCN=C(N)N)C(=O)N[C@@H](CCCN=C(N)N)C(N)=O [MDRFSLKWKKKRKIRRRRRRRRRRR]
MIC (Escherichia coli BL21): 4 µM (≈ 14.5 µg/mL) | MIC [14]: 3 µM (≈ 10.9 µg/mL) | MIC (Escherichia coli MG1655): 7.5 µM (≈ 27.2 µg/mL)

Structure (SMILES): CC[C@H](C)[C@H](NC(=O)CN)C(=O)N[C@@H](CCCCN)C(=O)N[C@@H](CC(=O)O)C(=O)N[C@@H](CC(C)C)C(=O)N[C@@H](CC(C)C)C(=O)N[C@@H](CCCCN)C(=O)NCC(=O)N[C@@H](C)C(=O)N[C@@H](C)C(=O)N[C@@H](CCCCN)C(=O)N[C@@H](C)C(=O)N[C@@H](CC(C)C)C(=O)N[C@H](C(=O)N[C@@H](CCCCN)C(=O)N[C@H](C(=O)N[C@H](C(=O)N[C@@H](CC(C)C)C(=O)N[C@@H](CCCCN)C(N)=O)C(C)C)[C@@H](C)O)C(C)C [GIKDLLKGAAKALVKTVLK]
MIC [15]: 1.7 µM (≈ 3.34 µg/mL) | MIC [16]: 4.7 µM (≈ 9.24 µg/mL) | MIC (Escherichia coli ML-35p): 12.5 µM (≈ 24.6 µg/mL) | MIC [17]: 25 µM (≈ 49.1 µg/mL) | MIC [18]: 6.3 µM (≈ 12.4 µg/mL) | MIC [19]: 50 µM (≈ 98.3 µg/mL)

Structure (SMILES): CC[C@H](C)[C@H](NC(=O)[C@H](CCCCN)NC(=O)CNC(=O)[C@H](CC(C)C)NC(=O)[C@H](Cc1ccccc1)NC(=O)[C@H](CCC(N)=O)NC(=O)[C@H](Cc1ccccc1)NC(=O)[C@@H](N)C(C)C)C(=O)N[C@H](C(=O)N[C@@H](Cc1cnc[nH]1)C(=O)N[C@@H](Cc1cnc[nH]1)C(=O)N[C@H](C(=O)NCC(=O)N[C@@H](CC(N)=O)C(=O)N[C@@H](Cc1ccccc1)C(=O)N[C@H](C(=O)N[C@@H](Cc1cnc[nH]1)C(=O)NCC(=O)N[C@@H](Cc1ccccc1)C(=O)N[C@@H](CO)C(=O)N[C@@H](C)C(=O)N[C@H](C(=O)N[C@@H](Cc1ccccc1)C(N)=O)C(C)C)C(C)C)C(C)C)[C@@H](C)CC [VFQFLGKIIHHVGNFVHGFSAVF]
MIC (Escherichia coli MG1655): ≥ 64 µM

Structure (SMILES): CC(C)C[C@H](NC(=O)[C@H](CC(C)C)NC(=O)[C@H](CC(N)=O)NC(=O)[C@H](CCC(=O)O)NC(=O)[C@H](CC(N)=O)NC(=O)[C@H](CC(C)C)NC(=O)[C@@H](N)C(C)C)C(=O)N[C@@H](CCCCN)C(=O)O [VLNENLLK]
MIC [1]: ≥ 1250 µM | MIC [2]: ≥ 1250 µM | MIC [3]: ≥ 625 µM | MIC [4]: ≥ 1250 µM | MIC [5]: ≥ 2500 µM | MIC [6]: ≥ 2500 µM | MIC [7]: ≥ 1250 µM | MIC [8]: ≥ 1250 µM | MIC [9]: ≥ 1250 µM | MIC [10]: ≥ 2500 µM | MIC [11]: ≥ 1250 µM | MIC [12]: ≥ 2500 µM | MIC [13]: ≥ 1250 µM

Other lines, results leading:

MIC [20]: 9 µM (≈ 15.6 µg/mL) | MIC (Listeria innocua): 1 µM (≈ 1.73 µg/mL) | MIC (Micrococcus luteus A270): 5 µM (≈ 8.67 µg/mL) | MIC (Escherichia coli): 9 µM (≈ 15.6 µg/mL)
Structure (SMILES): CC(C)C[C@H](NC(=O)[C@@H](N)Cc1ccccc1)C(=O)N[C@@H](CO)C(=O)N[C@@H](Cc1ccccc1)C(=O)N1CCC[C@H]1C(=O)N[C@H](C(=O)N[C@H](C(=O)N[C@@H](CCCCN)C(=O)N[C@H](C(=O)N[C@@H](Cc1ccc(O)cc1)C(=O)N[C@@H](Cc1ccccc1)C(=O)N1CCC[C@H]1C(=O)N[C@@H](Cc1cnc[nH]1)C(=O)N[C@@H](Cc1ccccc1)C(=O)O)[C@@H](C)O)[C@@H](C)O)[C@@H](C)O [FLSFPTTKTYFPHF]

MIC [21]: 8.04 µM (≈ 16 µg/mL) | MIC [22]: ≥ 257 µM | MIC [23]: 16.1 µM (≈ 32 µg/mL)
Structure (SMILES): CC[C@H](C)[C@H](NC(=O)[C@H](C)NC(=O)[C@H](CO)NC(=O)[C@@H]1CCCN1C(=O)[C@@H](NC(=O)[C@H](CC(C)C)NC(=O)[C@H](CO)NC(=O)[C@H](Cc1ccccc1)NC(=O)[C@H](CC(C)C)NC(=O)[C@@H](N)Cc1ccccc1)[C@@H](C)CC)C(=O)N[C@@H](C)C(=O)NCC(=O)N[C@@H](CC(C)C)C(=O)N[C@H](C(=O)N[C@@H](CO)C(=O)N[C@@H](C)C(=O)N[C@H](C(=O)N[C@@H](CCCN=C(N)N)C(=O)N[C@@H](CC(N)=O)C(N)=O)[C@@H](C)CC)C(C)C [FLFSLIPSAIAGLVSAIRN]

MIC [15]: 33 µM (≈ 74.3 µg/mL) | MIC [21]: ≥ 32 µM | MIC [24]: > 44 µM | MIC [25]: 17 µM (≈ 38.3 µg/mL) | MIC [22]: ≥ 512 µM | MIC [26]: ≥ 44 µM | MIC [23]: ≥ 512 µM | MIC [27]: ≥ 512 µM
Structure (SMILES): CC(C)C[C@H](NC(=O)[C@H](CC(C)C)NC(=O)[C@H](CC(C)C)NC(=O)[C@@H]1CCCN1C(=O)[C@H](CC(C)C)NC(=O)[C@@H](N)Cc1ccccc1)C(=O)N[C@@H](CO)C(=O)N[C@@H](C)C(=O)N[C@@H](CC(C)C)C(=O)N1CCC[C@H]1C(=O)N[C@@H](CO)C(=O)N[C@@H](Cc1ccccc1)C(=O)N[C@@H](CC(C)C)C(=O)N[C@H]1CSSC[C@@H](C(=O)O)NC(=O)[C@H](CCCCN)NC(=O)[C@H](CCCCN)NC(=O)[C@H](Cc2ccccc2)NC(=O)[C@H](C(C)C)NC(=O)[C@H](CC(C)C)NC1=O [FLPLLLSALPSFLCLVFKKC]

MIC [15]: 15 µM (≈ 33.4 µg/mL) | MIC [16]: 15 µM (≈ 33.4 µg/mL) | MIC [21]: ≥ 32 µM | MIC [22]: ≥ 512 µM | MIC [23]: ≥ 32 µM | MIC [27]: ≥ 32 µM
Structure (SMILES): CC(C)C[C@H](NC(=O)[C@H](C)NC(=O)[C@H](CC(C)C)NC(=O)[C@H](CO)NC(=O)[C@H](CC(C)C)NC(=O)[C@@H](N)Cc1ccccc1)C(=O)N[C@@H](C)C(=O)N[C@@H](C)C(=O)N[C@@H](CC(C)C)C(=O)N1CCC[C@H]1C(=O)N[C@@H](CCCCN)C(=O)N[C@@H](Cc1ccccc1)C(=O)N[C@@H](CC(C)C)C(=O)N[C@H]1CSSC[C@@H](C(=O)O)NC(=O)[C@H](CCCCN)NC(=O)[C@H](CCCCN)NC(=O)[C@H](Cc2ccccc2)NC(=O)[C@H](C(C)C)NC(=O)[C@H](CC(C)C)NC1=O [FLSLALAALPKFLCLVFKKC]
